target: Serine protease 1 (Homo sapiens) (UniProt P07477); experiment: Rate of hydrolysis by trypsin relative to TAME; conditions: not given
Sequence (P07477 whole entry): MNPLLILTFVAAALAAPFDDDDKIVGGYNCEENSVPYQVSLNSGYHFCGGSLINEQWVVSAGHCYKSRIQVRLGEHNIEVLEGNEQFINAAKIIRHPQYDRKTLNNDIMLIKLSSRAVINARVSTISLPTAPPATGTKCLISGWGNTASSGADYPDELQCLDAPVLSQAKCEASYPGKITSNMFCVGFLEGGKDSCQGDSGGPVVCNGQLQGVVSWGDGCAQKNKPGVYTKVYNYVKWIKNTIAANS

Relative hydrolysis | SMILES
0.5 | CN(C)c1cccc2c(S(=O)(=O)NC(CCCN=C(N)N)C(=O)OCCCCl)cccc12 (configuration not stated)

target: T1, Prothrombin (Bos taurus, UniProt P00735); experiment: Concentration at which the clotting time was prolonged by twice the control was determined using topical bovine thrombin; assay type: functional; conditions: read-out: I50

IC50 [µM] | SMILES
> 1000 | CN(C)c1cccc2c(S(=O)(=O)NC(CCCN=C(N)N)C(=O)O)cccc12 (configuration not stated)
100 | COC(=O)C(CCCN=C(N)N)NS(=O)(=O)c1cccc2cc(N(C)C)ccc12 (configuration not stated)
200 | CCC(COC(=O)C(CCCN=C(N)N)NS(=O)(=O)c1cccc2c(N(C)C)cccc12)[N+](=O)[O-] (configuration not stated)
2900 | COC(=O)C(CCCN=C(N)N)NS(=O)(=O)c1cccc([N+](=O)[O-])c1 (configuration not stated)
2 | C/C=C/COC(=O)C(CCCNC(=N)N)NS(=O)(=O)c1cccc2c(N(C)C)cccc12 (configuration not stated)
60 | CN(C)c1cccc2c(S(=O)(=O)NC(CCCN=C(N)N)C(=O)OC3CCCCC3)cccc12 (configuration not stated)
100 | COC(=O)C(CCCNC(=N)N)NS(=O)(=O)c1ccc(OC)cc1 (configuration not stated)
4 | C#CCCOC(=O)C(CCCN=C(N)N)NS(=O)(=O)c1cccc2c(N(C)C)cccc12 (configuration not stated)
5200 | COC(=O)C(CCCN=C(N)N)NS(=O)(=O)c1ccc(F)cc1 (configuration not stated)
5 | COCCOC(=O)C(CCCNC(=N)N)NS(=O)(=O)c1cccc2c(N(C)C)cccc12 (configuration not stated)
20 | COC(=O)C(CCCN=C(N)N)NS(=O)(=O)c1cccc2c(N(C)C)cccc12 (configuration not stated)
10 | CC(C)COC(=O)C(CCCN=C(N)N)NS(=O)(=O)c1cccc2c(N(C)C)cccc12 (configuration not stated)
2000 | CCC(C)OC(=O)C(CCCNC(=N)N)NS(=O)(=O)c1cccc2c(N(C)C)cccc12 (configuration not stated)
2 | CN(C)c1cccc2c(S(=O)(=O)NC(CCCNC(=N)N)C(=O)OCc3ccccc3)cccc12 (configuration not stated)
2400 | COC(=O)C(CCCN=C(N)N)NS(=O)(=O)c1ccc([N+](=O)[O-])cc1 (configuration not stated)
8 | CCOC(=O)C(CCCNC(=N)N)NS(=O)(=O)c1cccc2c(N(C)C)cccc12 (configuration not stated)
2 | CCCOC(=O)C(CCCN=C(N)N)NS(=O)(=O)c1cccc2c(N(C)C)cccc12 (configuration not stated)
2700 | COC(=O)C(CCCNC(=N)N)NS(=O)(=O)c1ccc(Cl)cc1 (configuration not stated)
30 | CC(C)OC(=O)C(CCCNC(=N)N)NS(=O)(=O)c1cccc2c(N(C)C)cccc12 (configuration not stated)
130 | COC(=O)C(CCCN=C(N)N)NS(=O)(=O)c1ccc2ccccc2c1 (configuration not stated)
20 | CN(C)c1cccc2c(S(=O)(=O)NC(CCCNC(=N)N)C(=O)OCC3CCCO3)cccc12 (configuration not stated)
520 | COC(=O)C(CCCNC(=N)N)NS(=O)(=O)c1cccc2ccccc12 (configuration not stated)
4800 | COC(=O)C(CCCN=C(N)N)NS(=O)(=O)c1ccc(N)cc1 (configuration not stated)
49 | CCCCCOC(=O)C(CCCN=C(N)N)NS(=O)(=O)c1cccc2c(N(C)C)cccc12 (configuration not stated)

target: T1, Prothrombin; experiment: Concentration at which the clotting time was prolonged by twice the control was determined using commercial topical bovine thrombin.; assay type: functional; conditions: not given

IC50 [µM] | SMILES
2000 | COC(=O)C(CCCN=C(N)N)NS(=O)(=O)c1cccc2c(N(C)C)cccc12 (configuration not stated)

target: Prothrombin (Bos taurus) (UniProt P00735); experiment: Rate of hydrolysis by thrombin relative to TAME; conditions: not given

Relative hydrolysis | SMILES
0.084 | CN(C)c1cccc2c(S(=O)(=O)NC(CCCN=C(N)N)C(=O)OCCCCl)cccc12 (configuration not stated)

Source: ChEMBL document CHEMBL1121483, “Thrombin inhibitors. 1. Ester derivatives of N alpha-(arylsulfonyl)-L-arginine” (J Med Chem, 1980)
